Reference: ChEMBL document CHEMBL5346909, “Korupensamine A, but not its atropisomer, korupensamine B, inhibits SARS-CoV-2 in vitro by targeting its main protease (Mpro)” (Eur J Med Chem, 2023)

Experiments:
[1] = biological target: T1, Replicase polyprotein 1ab (Severe acute respiratory syndrome coronavirus 2, UniProt P0DTD1); assay: Inhibition of SARS CoV-2 main protease
SARS-CoV-2 = assay: Antiviral activity against SARS-CoV-2 infected in African green monkey Vero cells assessed as inhibition of viral replication measured after 24 hrs post infection by qRT-PCR analysis; format: functional, organism-based; settings: Severe acute respiratory syndrome coronavirus 2, Vero
[2] = biological target: T1, Replicase polyprotein 1ab; assay: Binding affinity to SARS CoV-2 main protease assessed as inhibition constant
[3] = Cytotoxicity against African green monkey Vero cells incubated for 3 days by automatic cell counting method; format: toxicity, cell-based; settings: chlorocebus sabaeus, time 3 day

Row | Structure (SMILES) | IC50 [1] [µM] | EC50 (SARS-CoV-2) [µM] | Ki [2] [µM] | CC50 at 72 h [3] [µM]
1 | COc1cc(C)cc2c(-c3c(O)cc(O)c4c3C[C@@H](C)N[C@@H]4C)ccc(O)c12 (stereo in doubt; 1a) [KORUPENSAMINE A] | 2.52 | 4.23 | 1.42 | 35.1
2 | COc1cc(C)cc2c(-c3c(O)cc(O)c4c3C[C@@H](C)N[C@@H]4C)ccc(O)c12 (stereo in doubt; 1b) [KORUPENSAMINE A] | 71.9 | – | – | –
